Entries after “also recorded” stand apart in the source; their conditions may differ.
Assays:
[1] = system: cortical brain mitochondria; assay: Mitochondrial respiration and respiratory control ratio (RCR) of isolated brain cortex mitochondria after 21 days treatment; details: for Respiratory control ratio (RCR): old mice (18 to 20 month), 50 mg/kg p.o.; for Respiratory control ratio (RCR) / Mitochondrial respiration in all states: 21 days; for State II respiratory rate / Mitochondrial respiration in all states: 50 mg/kg; for Mitochondrial respiration in all states: young and old mice, vs respective normal control; for Respiratory rate at state V (complex I): FCCP
Procedure: Briefly the mitochondria were added to the chamber and respiratory states were evaluated by suitable substrates and inhibitors. Purified mitochondrial protein was suspended in respiration buffer in a final volume of 250 μL. State II respiration was initiated by addition of Pyruvate/Malate (P/M), with basal rate of respiration. […] State IV was measured by addition of oligomycin. The respiration returns to basal rate since the ATP synthase is shut down and no electrons are allowed to return to the matrix. The electron transport chain (ETC) continues only to maintain mitochondrial membrane potential due to loss of protons back into the matrix. State V was measured by addition of FCCP. This represents the maximum rate of respiration, causing uncoupling of the ETC to ATP synthesis, and allows protons to rush back into the matrix. Rotenone was then added to shut down complex I-driven respiration. State V (succinate) was determined by addition of succinate. This is the maximum rate of respiration via complex II, since FCCP is present in the system.

[2] = system: acetylcholine (ACh) level in HIP tissue; assay: Acetylcholine level in hippocampal tissue, Amplex Red kit (Example 9D); type: in vivo, Male Wistar rats; details: p.o. 7 days: B 50, A 50, Donepezil 3, B:A 10:50 and 50:50, Shilajit 50 mg/kg
Procedure: Drug solution was freshly prepared in 0.3% CMC and administered by oral gavage once a day, for a period of 7 days. Briefly, the whole experiment was conducted for 8 days. Scopolamine (1 mg/kg), a muscarinic receptor antagonist, was dissolved in normal saline (0.9% NaCl) and administered intraperitoneally 1 h after drugs administration on seventh day.
Sample preparation: The animals were killed by decapitation and the brain tissues were dissected out in ice-cold conditions and stored at −80° C. until use. Tissue was homogenized in 1.0 ml of 0.1M perchloric acid with a Potter-Elvehjem homogenizer. The homogenate was kept in the polypropylene tubes for 15 min after which 40 μl of 4M potassium acetate was added to adjust the pH to 4.0 followed by centrifugation for 15 min at 4000×g. Supernatant was used to estimate acetylcholine and AChE activities.
Samples were prepared as in Example 9C. The amount of acetylcholine in brain tissues was measured using Amplex red assay kit (Molecular Probes, Inc., USA). An acetylcholine standard curve was used in each experiment. Briefly, the reactions are initiated by adding 0.1 ml of control (10 μM H2O2) and tissue homogenates were taken in two separate polypropylene tubes and then 0.1 ml working solution of 400 μM Amplex Red reagent containing 2 U/mL HRP, 0.2 U/mL choline oxidase and 1 U/mL acetylcholinesterase were added to each tube. After incubation for 45 min, the fluorescence was recorded with the help of spectrofluorometer at 530 nm excitation and 590 nm emission wavelengths. The protein content was determined using standard protocol (Lowry, et al., 1951).
Statistical analyses: The results were expressed as means±Standard Error mean (SEM). The intergroup variation was measured by one-way ANOVA followed by Student-Newman-Keuls test. Two-way followed by Bonferroni test was employed to discover the intergroup variation in Y maze test considering groups and arms as two independent variables. Statistical analysis was done by using Graph Pad prism version 5 (San Diego, Calif.). A level of p<0.05 was accepted as statistically significant.

[3] = system: scopolamine induced dementia in rats; assay: Y-maze test, scopolamine induced dementia in rats (Study 2); type: in vivo, Charles Foster male albino rats; details: 50 mg dose orally once daily; for Coping behavior to novel environment (% time in novel arm), trial-2 / Curiosity behavior (total number of entries), trial-1 and trial-2: scopolamine treated rats; for % known and novel arm entries (spatial recognition memory): vs scopolamine treated rats
Procedure: 2.2. Animal subjects. Inbred Charles Foster male albino rats (130-180 g) were obtained from the Central Animal House, Institute of Medical Sciences (IMS), Banaras Hindu University (BHU), Varanasi, Uttar Pradesh, India. These were certified to be pathogen free and were randomly distributed into different experimental groups. The rats were kept in the departmental animal house at an ambient temperature of 25±1° C. and 45-55% RH, with a 12-h light/dark cycle (lights on 7:00-19:00 h). The animals had free access to standard pellet chow and tap water ad libitum. Experiments were conducted between 9:00 and 14:00 h. The behavioral testing was done during the light phase. Animals were housed in groups and acclimatized for at least one week before using them for experiments. Animals were transported in cage covered by dark cloth to the experimental room. The experimental procedures were in compliance with National Institutes of Health Guide for Care and Use of Laboratory Animals.
The rats were pretreated orally for seven days through an orogastric tube with experimental drugs (10, 25 and 50 mg/kg once daily) suspended in 0.3% carboxymethyl cellulose (CMC). The treatment was continued until the end of the experiment procedures (Singh, G. K., Garabadu, D., Muruganadam, A. V., Joshi, V. K., Krishnamurthy, S., “Antidepressant activity of Asparagus racemosus in animal models of depression,” Pharmacol. Biochem. Behav. (2009) 91(3):283-90). Scopolamine was dissolved in water for injection and administered on day 7 after one hour of drug treatment administration. Donepezil (5 mg/kg; i.p.)
was used as standard drug. On day 8 the behavioral experiment was performed. The animals were sacrificed and hippocampus was micro-dissected using the coordinates of the rat brain atlas. All control group animals were treated with the 0.3 ml of vehicle (0.3% CMC suspension) equal to the volume of experimental drugs (Ohj a, R., et al., “Asparagus recemosus enhances memory and protects against amnesia in rodent models,” Brain Cogn. (2010) October; 74(1): 1-9).
Spatial recognition memory, general exploratory behavior, and anxiety-like behavior were assessed by the Y-maze test. Y-maze consists of three similar arms of dimension 50 cm long, 16 cm wide and 32 cm high. In the first trial, the novel arm was blocked and the animal was allowed to move for 15 min in other two arms. In the second trial, the novel arm was opened and the animal was allowed to move for 5 min in all three arms after 4 h of the first trial. The total number of entries in all arms (for 5 min of trial-1 and trial-2) is indicative of general exploration attitude (curiosity). The % entries in known and novel arms for the 5 min period of trial 2 were considered as a measure of spatial recognition memory. Coping strategy to the novel environment was estimated by the percentage of the ratio of time spent in the novel arm to time spent in all arms and in the center of the apparatus during trial 2. The decrease in the coping behavior to the novel environment was considered as an increase in anxiety-like behavior (Krishnamurthy, S., et al., “Risperidone ameliorates post-traumatic stress disorder-like symptoms in modified stress re-stress model,” Neuropharmacology (2013) 75:62-77).

| SMILES | Respiratory control ratio (RCR) ([1]; vs old control) | State II respiratory rate ([1]; old mice, vs old control) | Mitochondrial respiration in all states [1] | State II respiratory rate ([1]; young mice, vs young control) | Respiratory rate at state V (complex I) ([1]; young mice) | Scopolamine-induced decrease in ACh level in HIP tissue [2] | Coping behavior to novel environment (% time in novel arm), trial-2 [3] | Curiosity behavior (total number of entries), trial-1 and trial-2 [3] | % known and novel arm entries (spatial recognition memory) [3] |
| --- | --- | --- | --- | --- | --- | --- | --- | --- | --- |
| O=c1oc2cc(O)ccc2c2ccc(O)cc12 [Urolithin A, 3,8-dihydroxy-dibenzo-alpha-pyrone] | significantly increased the RCR | found to be increased | significantly increased mitochondrial respiration | significant increases in respiratory rate | significantly found to be increased | attenuated the scopolamine induced decrease in ACh level | attenuated the scopolamine-induced decrease in coping strategy | attenuated the scopolamine induced decrease in curiosity behavior | dose dependently reversed the % known and novel arm entries |
| O=c1oc2cc(O)ccc2c2ccccc12 [Urolithin B, 3-hydroxy-dibenzo-alpha-pyrone] | significantly increased the RCR | found to be increased | significantly increased mitochondrial respiration | significant increases in respiratory rate | significantly found to be increased; also recorded: less effect | attenuated the scopolamine induced decrease in ACh level | attenuated the scopolamine-induced decrease in coping strategy | attenuated the scopolamine induced decrease in curiosity behavior | dose dependently reversed the % known and novel arm entries |

From patent US20200246308A1, “SYNERGISTIC COMBINATIONS OF UROLITHINS A AND B FOR IMPROVING COGNITIVE CAPACITY OR COGNITIVE FUNCTION” (Natreon, Inc., priority 2018, published 2020)
